According to paper PMC3366211, “Leishmanicidal Activity of Nine Novel Flavonoids from Delphinium staphisagria” (The Scientific World Journal, 2012):

What was measured:
[1] = system: L. infantum promastigote forms; assay: Promastigote forms assay; format: cell-based, Leishmania infantum; conditions: for SI Promastigote forms: IC50 macrophages/IC50 parasite form; for IC50: Leishmania infantum, 72 h; for times SI exceeds the reference drug SI (all forms): extracellular and intracellular forms; for times SI exceeds the reference drug SI (all forms) / number of times that compound SI exceeds the reference drug SI, Promastigote forms: reference Glucantime; for number of times that compound SI exceeds the reference drug SI, Promastigote forms: in brackets
Method: (§1) The compounds obtained were dissolved in the culture medium, at dosages of 100, 50, 25, 10, and 1 μM. The effects of each compound against promastigote forms were tested at 72 hours using a Neubauer haemocytometric chamber. The antileishmanial effect is expressed as the IC50, that is, the concentration required to give 50% inhibition, calculated by linear regression analysis from the Kc values of the concentrations employed.

[2] = system: L. braziliensis promastigote forms; assay: Promastigote forms assay; format: cell-based, Leishmania braziliensis; conditions: for SI Promastigote forms: IC50 macrophages/IC50 parasite form; for IC50: Leishmania braziliensis, 72 h; for number of times that compound SI exceeds the reference drug SI, Promastigote forms: in brackets, reference Glucantime
Method: as §1

[3] = system: L. infantum axenic amastigote forms; assay: Axenic amastigote forms assay; format: cell-based, Leishmania infantum; conditions: for SI Axenic amastigote forms: IC50 macrophages/IC50 parasite form; for IC50: Leishmania infantum, 48 hours per method (72 h); for number of times that compound SI exceeds the reference drug SI, Axenic amastigote forms: in brackets, reference Glucantime
Method: (§2) Axenic amastigotes forms of L. infantum and L. braziliensis were cultured following the methodology described previously by Moreno et al.. Thus, promastigote transformation to amastigotes was obtained after three days of culture in M199 medium (Invitrogen, Leiden, The Netherlands) supplemented with 10% heat-inactivated FCS, 1 g/L β-alanine, 100 mg/L L-asparagine, 200 mg/L sacarose, 50 mg/L sodium pyruvate, 320 mg/L malic acid, 40 mg/L fumaric acid, 70 mg/L succinic acid, 200 mg/L α-ketoglutaric acid, 300 mg/L citric acid, 1.1 g/L sodium bicarbonate, 5 g/L MES, 0.4 mg/L hemin, and 10 mg/L gentamicin pH 5.4 at 37°C. The effect of each compound against axenic amastigotes forms was tested at 48 hours using a Neubauer haemocytometric chamber. The antileishmanial effect is expressed as the IC50.

[4] = system: L. braziliensis axenic amastigote forms; assay: Axenic amastigote forms assay; format: cell-based, Leishmania braziliensis; conditions: for SI Axenic amastigote forms: IC50 macrophages/IC50 parasite form; for IC50: Leishmania braziliensis, 48 hours per method (72 h); for number of times that compound SI exceeds the reference drug SI, Axenic amastigote forms: in brackets, reference Glucantime
Method: as §2

[5] = system: L. infantum intracellular amastigote forms; assay: Intracellular amastigote forms assay in J774.2 macrophages; format: cell-based, Leishmania infantum; conditions: for SI Intracellular amastigote forms / number of times that compound SI exceeds the reference drug SI, Intracellular amastigote forms: L. infantum; for SI Intracellular amastigote forms: IC50 macrophages/IC50 parasite form; for number of times that compound SI exceeds the reference drug SI, Intracellular amastigote forms: in brackets, reference Glucantime; for IC50: Leishmania infantum, L. infantum in J774.2 macrophages, 72 h
Method: (§3) Cells were seeded at a density of 1 × 10^4 cells/well in 24-well microplates (Nunc) with rounded coverslips on the bottom and cultured for 2 days. Afterwards the cells were infected in vitro with promastigote forms of L. infantum and L. braziliensis, at a ratio of 10 : 1 during 24 hours. The non-phagocytosed parasites were removed by washing, and then the drugs (at 1, 10, 25, 50, 100 μM) were added. Macrophages with the drugs were incubated for 72 hours at 37°C in 5% CO2.
(§4) Drug activity was determined on the basis of number of amastigotes in treated and untreated cultures in methanol-fixed and Giemsa-stained preparations. The number of amastigotes was determined by analyzing 200 host cells distributed in randomly chosen microscopic fields. The antileishmanial effect is expressed as the IC50 values are the means of three separate determinations.

[6] = system: L. braziliensis intracellular amastigote forms; assay: as above; format: cell-based, Leishmania braziliensis; conditions: for SI Intracellular amastigote forms / number of times that compound SI exceeds the reference drug SI, Intracellular amastigote forms: L. braziliensis; for SI Intracellular amastigote forms: IC50 macrophages/IC50 parasite form; for number of times that compound SI exceeds the reference drug SI, Intracellular amastigote forms: in brackets, reference Glucantime; for IC50: Leishmania braziliensis, L. braziliensis in J774.2 macrophages, 72 h
Method: as §3, §4

J774.2 macrophages = assay: Cytotoxicity test for macrophages (flow cytometry); format: cell-based, BALB/c rat; conditions: Mus musculus, J774.2, 72 h, J774.2 macrophages after 72 h of culture; read-out: Macrophage toxicity IC50
Method: J774.2 macrophages (ECACC number 91051511) were originally obtained from a tumour in a female BALB/c […] in 1968. The cytotoxicity test for macrophages was performed according to the methodology of González et al.. After 72 hours of treatment, cell viability was determined by flow cytometry. Thus, 100 μL/well of propidium iodide solution ([…]) was added and incubated for 10 min at 28°C in darkness. Afterwards, 100 μL/well of fluorescein diacetate (100 ng/mL) was added and incubated under the same conditions. Finally, the cells were recovered by centrifugation at 400 g for 10 min and the precipitate washed with phosphate buffered saline (PBS). Flow cytometric analysis was performed with a FACSVantage flow cytometer (Becton Dickinson). The percentage viability was calculated in comparison with the control culture. The IC50 was calculated using linear regression analysis from the Kc values of the concentrations employed.

[7] = system: epimastigote forms of Trypanosoma cruzi; design: method as in PMID 21466157; conditions: cited from earlier work
L. infantum = assay: Infection assay in J774.2 macrophages; format: cell-based, Leishmania infantum; conditions: IC25 concentration; for infection rate decrease, percentage of inhibition capacity: with respect to control
Method: (§5) J774.2 macrophage cells were grown under the same conditions expressed in amastigote forms assay during two days. Afterwards, the cells were infected in vitro with promastigote forms of L. infantum and L. braziliensis, at a ratio of 10 : 1. The drugs (IC25 concentrations) were added immediately after infection and were incubated for 12 hours at 37°C in 5% CO2. The nonphagocytosed parasites and the drugs were removed by washing, and then the infected cultures were grown for 10 days in fresh medium. Fresh culture medium was added every 48 h. The drug activity was determined from the percentage of infected cells and the number of amastigotes per infected cell (in treated and untreated cultures) in methanol-fixed and Giemsa-stained preparations. The percentage of infected cells and the mean number of amastigotes per infected cell were determined by analyzing 200 host cells distributed in randomly chosen microscopic fields. Values are the average of three separate determinations.

L. braziliensis = assay: Infection assay in J774.2 macrophages; format: cell-based, Leishmania braziliensis; conditions: IC25 concentration; for infection rate decrease, percentage of inhibition capacity: with respect to control
Method: as §5

[8] = system: L. infantum promastigotes; assay: Metabolite excretion (1H-NMR); format: cell-based, Leishmania infantum; conditions: IC25, 96 hours, vs control
Method: (§6) Cultures of L. infantum and L. braziliensis promastigotes (initial concentration 5 × 10^5 cells/mL) received IC25 concentrations of the compounds (except for control cultures). After incubation for 96 hours at 28°C, the cells were centrifuged at 400 g for 10 min. Then supernatants were collected to determine the excreted metabolites using ^1H-NMR, and, eventually, chemical displacements were expressed in parts per million (ppm), using sodium 2,2-dimethyl-2-silapentane-5-sulphonate as the reference signal. The chemical displacements used to identify the respective metabolites were consistent with those described by Fernández-Becerra et al.

[9] = system: L. braziliensis promastigotes; assay: Metabolite excretion (1H-NMR); format: cell-based, Leishmania braziliensis; conditions: IC25, 96 hours, vs control
Method: as §6

[10] = system: L. infantum promastigotes; assay: Ultrastructural alterations (TEM); format: cell-based, Leishmania infantum; conditions: IC25, 96 hours
Method: (§7) The parasites were cultured at a density of 5 × 10^5 cells/mL in MTL medium, and the cultures contained drugs at the IC25 concentration.
(§8) After 96 hours, those cultures were centrifuged at 400 g for 10 min, and the pellets produced were washed in PBS and then mixed with 2% (v/v) P-formaldehyde-glutaraldehyde in 0.05 M cacodylate buffer (pH 7.4) for 4 hours at 4°C. After that, the pellets were prepared for TEM employing the technique of González et al..

[11] = system: L. braziliensis promastigotes; assay: Ultrastructural alterations (TEM); format: cell-based, Leishmania braziliensis; conditions: IC25, 96 hours
Method: as §7, §8

SMILES	SI Promastigote forms [1]	IC50 [1] [µM]	times SI exceeds the reference drug SI (all forms) [1]	number of times that compound SI exceeds the reference drug SI, Promastigote forms [1]	SI Promastigote forms [2]	IC50 [2] [µM]	number of times that compound SI exceeds the reference drug SI, Promastigote forms [2]	SI Axenic amastigote forms [3]	IC50 [3] [µM]	number of times that compound SI exceeds the reference drug SI, Axenic amastigote forms [3]	SI Axenic amastigote forms [4]	IC50 [4] [µM]	number of times that compound SI exceeds the reference drug SI, Axenic amastigote forms [4]	SI Intracellular amastigote forms [5]	number of times that compound SI exceeds the reference drug SI, Intracellular amastigote forms [5]	IC50 [5] [µM]	SI Intracellular amastigote forms [6]	number of times that compound SI exceeds the reference drug SI, Intracellular amastigote forms [6]	IC50 [6] [µM]	IC50 (J774.2 macrophages) [µM]	also measured
O=c1c(O[C@@H]2O[C@H](CO)[C@@H](O)[C@H](O)[C@H]2O)c(-c2ccc(O)cc2)oc2cc(O)cc(O)c12 [Compound 1, astragalin]	6.7	35.1 ± 3.3	< 50 times	8	8.4	28.1 ± 1	14	8.1	29.2 ± 2.8	14	10.4	22.6 ± 1.7	21	5.1	10	45.9 ± 2.7	7.3	15	32.2 ± 1.6	236 ± 17.9	IC50 compared with benznidazole [7]: significantly lower IC50 values compared with benznidazole
C[C@H]1O[C@H](Oc2cc(O)c3c(=O)c(O[C@@H]4O[C@H](CO)[C@@H](O)[C@H](O)[C@H]4O)c(-c4ccc(O)c(O)c4)oc3c2)[C@@H](O)[C@@H](O)[C@@H]1O [Compound 7, petiolaroside]	>40.8	24.5 ± 1.1	more than 50 times	51	>47.4	21.1 ± 1.7	79	>51.5	19.4 ± 1.4	86	>51.3	19.5 ± 0.8	103	>36.0	72	27.8 ± 1.4	>29.5	59	33.9 ± 3.5	> 1000	decrease of average number of amastigotes per infected macrophage cell (L. infantum): 49%; infection rate decrease, percentage of inhibition capacity (L. infantum): 77%; decrease of average number of amastigotes per infected macrophage cell (L. braziliensis): 55%; infection rate decrease, percentage of inhibition capacity (L. braziliensis): 69%; change in excreted catabolites [8]: an increase in the production of malate, succinate, ethanol, and lactate, but a decrease of excreted acetate and alanine levels; change in excreted catabolites [9]: decreases in the excretion of acetate; ultrastructural alterations by TEM [10]: no induction of substantial alterations; ultrastructural alterations by TEM [11]: All these changes occurred
CC(=O)O[C@H]1[C@H](Oc2c(-c3ccc(O)c(O)c3)oc3cc(O[C@@H]4O[C@@H](C)[C@H](O)[C@@H](O)[C@H]4O)cc(O)c3c2=O)O[C@H](CO)[C@@H](O)[C@@H]1O [Compound 8, 2′′-acetylpetiolaroside]	52.4		more than 50 times	66	>34.5	29 ± 1.5	58	>54.3	18.4 ± 1.3	91	>39.2	25.5 ± 0.7	78	>31.2	62	32.1 ± 2	>49.8	100	20.1 ± 1.7	> 1000	decrease of average number of amastigotes per infected macrophage cell (L. infantum): 78%; infection rate decrease, percentage of inhibition capacity (L. infantum): 95%; decrease of average number of amastigotes per infected macrophage cell (L. braziliensis): 82%; infection rate decrease, percentage of inhibition capacity (L. braziliensis): 88%; change in excreted catabolites [8]: an increase in the excretion of succinate, and acetate, followed by malate, alanine, lactate and ethanol; change in excreted catabolites [9]: decreases in the excretion of acetate; ultrastructural alterations by TEM [10]: many of the parasites adopted distorted shapes with distorted cytoplasm; ultrastructural alterations by TEM [11]: induced changes in the shape of parasites, with them showing completely altered forms
